Measured values published in patent US5985603A, “P2x receptor DNA and protein sequence” (Glaxo Group Limited, priority 1994, dated 1999).
Where a name gives a salt, the structure may show the parent alone.

Columns and labels:
hP2X = target: T1, hP2X (Homo sapiens, UniProt P51575); assay: inward currents evoked by purinoceptor agonists in Xenopus oocytes expressing hP2X; format: cell-based; conditions: for full agonist activity: concentration-response curves; for agonist profile (rank order): oocytes expressing hP2X; for relative potency: relative to ATP, from EEC50
T1 construct: expressed in transfected cells; host or cells: Xenopus oocytes injected with in vitro transcribed RNA
T1 sequence (P51575 1-399): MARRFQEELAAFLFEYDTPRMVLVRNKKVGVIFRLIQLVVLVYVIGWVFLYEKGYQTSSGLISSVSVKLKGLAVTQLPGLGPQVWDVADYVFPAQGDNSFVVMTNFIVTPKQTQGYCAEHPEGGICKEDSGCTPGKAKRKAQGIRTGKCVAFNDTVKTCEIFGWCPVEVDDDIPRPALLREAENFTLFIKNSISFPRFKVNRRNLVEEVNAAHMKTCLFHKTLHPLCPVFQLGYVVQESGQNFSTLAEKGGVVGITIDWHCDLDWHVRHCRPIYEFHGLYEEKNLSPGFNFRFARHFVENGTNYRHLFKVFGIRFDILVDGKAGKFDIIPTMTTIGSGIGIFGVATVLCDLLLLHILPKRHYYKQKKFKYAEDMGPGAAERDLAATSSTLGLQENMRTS
Experimental: Human urinary bladder P2X cDNA, subcloned into the pBKCMV expression vector, was linearized with Notl, and transcribed in vitro with T3 polymerase in the presence of cap analogue m7G(5')ppp(5')G. Defolliculated Xenopus oocytes (Bertrand et al, Electrophysiology of neuronal nicotinic acetylcholine receptors expressed in Xenopus oocytes following nuclear injection of genes or cDNAs Meth Neurosci 4: 174-193 (1991)) were injected with 50 ng of human P2X in vitro transcribed RNA, and incubated at 18° C. for 2-6 days in the ND96 solution (mM): NaCl96, KCl2, MgCl2 1, CaCl2 2, sodium pyruvate 5, HEPES 5, ph 7.6-7.5, penicillin (10 U/ml), and streptomycin (10 μg/ml).
Oocytes were placed in a 1 ml chamber and superfused at 2-3 ml/min with ND96 solution with 0.1 mM BaCl2 replacing the 2 mM CaCl2 to prevent activation of endogenous calcium-activated chloride currents (Barish, A transient calcium-dependent chloride current in the immature Xenopus oocytes J Physiol 342: 309-325 (1983)). Currents were measured using a two-electrode voltage-clamp amplifier (Geneclamp Axon Instruments)at a holding potential of -60 mV. Microelectrodes were filled with 3 M KCl (0.5-2 M.OMEGA.). Data were collected using PClamp software (Axon Instruments). […] Antagonists were applied both in the superfusate and together with ATP in the U-tube solution.
Concentration response curves for purinoceptor agonists were fitted with a Hill slope of 1. […] Data are presented throughout as mean ± SEM for a given number of oocytes.

P2X-purinoceptor = conditions: cited from earlier work
[1] = target: T2, rat vas/human bladder P2X cDNA clone (Homo sapiens, UniProt P51575); assay: functional properties of cloned P2X receptors (electrical recordings): bladder; format: cell-based; conditions: Table A; for Ca++ block, bladder: extracellular calcium 30 mM in text
T2 construct: expressed in transfected cells; host or cells: HEK293 cells (oocytes are also named for the functional characterisation)
T2 sequence (P51575 1-399): T1 sequence (P51575 1-399)
Experimental: DNA concentration used was 1 mg/2 ml medium placed into a 35 mm petri dish containing four 11 mm diameter coverslips on which HEK cells were placed at 10,000 cells per coverslip. […] Currents were recorded from HEK 293 cells using whole-cell recording methods and the AXOPATCH™ 200 amplifier (Axon Instruments); patch pipettes (5 M.OMEGA.) contained (mM) Cs or K aspartate 140, NaCl 5, EGTA 11, HEPES 5. […] All recordings performed at room temperature. Data acquisition and analysis were performed using pCLAMP™ and AXOGRAPH™ software (Axon Instruments). […] ATP was applied by U-tube typically for 1 s; data was sampled at 5 kHz in 2 s segments beginning 300 ms prior to onset of agonist (ATP) application and filtered at 1 kHz.

PC12 P2X receptor = target: T3, PC12 P2X receptor (Rattus norvegicus, UniProt P49653); assay: functional properties of cloned P2X receptors (electrical recordings): PC12; format: cell-based; conditions: Table A; for Ca++ block, PC12: extracellular calcium 30 mM in text
T3 construct: host or cells: HEK293 cells (oocytes are also named for the functional characterisation of clone 3)
T3 sequence (P49653 1-472): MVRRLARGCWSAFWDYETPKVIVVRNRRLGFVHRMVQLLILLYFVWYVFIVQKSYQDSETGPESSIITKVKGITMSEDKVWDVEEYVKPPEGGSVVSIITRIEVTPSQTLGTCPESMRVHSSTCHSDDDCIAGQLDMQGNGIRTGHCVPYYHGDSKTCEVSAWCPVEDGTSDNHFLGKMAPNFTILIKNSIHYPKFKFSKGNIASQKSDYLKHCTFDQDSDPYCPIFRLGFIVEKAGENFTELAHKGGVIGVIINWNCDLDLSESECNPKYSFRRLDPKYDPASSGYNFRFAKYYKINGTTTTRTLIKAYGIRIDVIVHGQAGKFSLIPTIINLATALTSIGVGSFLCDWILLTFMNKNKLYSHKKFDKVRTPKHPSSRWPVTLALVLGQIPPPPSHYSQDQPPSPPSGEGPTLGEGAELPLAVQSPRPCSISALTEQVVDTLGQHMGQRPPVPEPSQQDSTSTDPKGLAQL
Experimental: (§1) HEK 293 cells were transfected by the lipofectin method (Felgner et al., Proc. Nat'l. Acad. Sci. USA 84 7413-7417 (1987)) with P2X -plasmid. DNA concentration used was 1 mg/2 ml medium placed into a 35 mm petri dish containing four 11 mm diameter coverslips on which HEK cells were placed at 10,000 cells per coverslip. […] Currents were recorded from HEK 293 cells using whole-cell recording methods and the AXOPATCH™ 200 amplifier (Axon Instruments); patch pipettes (5 M.OMEGA.) contained (mM) Cs or K aspartate 140, NaCl 5, EGTA 11, HEPES 5. The external solution was (mM) NaCl 150, KCl2, CaCl2 2, MgCl2 1, HEPES 5 and glucose 11; the pH and osmolarity of both solutions were maintained at 7.3 and 305 mosmol/l respectively. All recordings performed at room temperature. Data acquisition and analysis were performed using pCLAMP™ and AXOGRAPH™ software (Axon Instruments). […] The pH and osmolarity of the solutions were 7.4 and 295 mosmol/l respectively. For single channel measurements, a […]™ 500 amplifier and outside-out recording methods were used (Adelman et al., Neuron 9 209-216 (1992)). Wax-coated patch pipettes (5-10 M.OMEGA.) contained (mM) K-gluconate 115, HEPES 5, BAPTA 5 and MgCl2 0.5, external solution was 96 mM NaCl, 2 mM KCl, 1.8 mM CaCl2, 1 mM MgCl2, 5 mM Hepes pH 7.6, and 5 mM sodium pyruvate.
(§2) The functional characterisation of the clone illustrated in FIG. 2 (referred to herein as clone 3) was carried out by electrical recordings from transfected HEK293 cells and from oocytes injected with the in vitro transcribed RNA, as described in Example 4 for the rat vas deferens P2X receptor. Table A summarizes the main properties of clone 3 as compared to those of rat vas/human bladder cDNA clone, and the PC12 cDNA clone (provided by David Julius and Tony Brake of the University of California at San Francisco).

[2] = target: T4, rat superior cervical ganglion P2X receptor (clone 3) (Rattus norvegicus, UniProt P51577); assay: functional properties of cloned P2X receptors (electrical recordings): clone 3; format: cell-based; conditions: for Ca++ block, clone 3: extracellular calcium 30 mM in text
T4 construct: The insert appeared to be a full length cDNA; expressed in transfected cells; host or cells: HEK293 cells transfected with pcDNA3 construct p464 (also oocytes injected with in vitro transcribed RNA)
T4 sequence (P51577 1-388): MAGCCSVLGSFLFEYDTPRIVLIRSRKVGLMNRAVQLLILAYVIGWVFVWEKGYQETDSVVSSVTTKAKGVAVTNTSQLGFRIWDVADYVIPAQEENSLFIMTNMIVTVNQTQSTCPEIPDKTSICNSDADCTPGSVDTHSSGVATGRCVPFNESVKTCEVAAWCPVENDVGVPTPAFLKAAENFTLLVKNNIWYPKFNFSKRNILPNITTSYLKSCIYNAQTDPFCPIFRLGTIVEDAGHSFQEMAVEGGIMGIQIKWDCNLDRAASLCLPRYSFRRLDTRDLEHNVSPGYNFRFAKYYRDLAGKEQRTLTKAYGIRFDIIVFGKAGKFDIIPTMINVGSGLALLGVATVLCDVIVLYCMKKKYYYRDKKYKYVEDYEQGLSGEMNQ
Experimental: as §1, §2

hP2X mRNA = assay: induction of hP2X mRNA in HL60 cells by Northern blot; format: cell-based, human; conditions: 1.8 and 2.6 kb bands
Experimental: HL60 cells (human promyelocytes ATCC CCL240) were passaged twice weekly in RPMI-1640 supplemented with 25 mnM HEPES, 2 mM Glutamax II, and 10% heat-inactivated fetal calf serum (GIBCO BRL) . For each experiment 33×10^6 cells were resuspended at 2.5×10^5 cells/ml in medium containing either phorbol mystate acetate (100 nM), 1. 1% DMSO, or dibutyryl cAMP (200 uM) (SIGMA) for the indicated times.
PolyA^+ RNAs were obtained from Clontech Laboratories Inc. (Palo Alto) except for the urinary bladder and HL60 mRNA which were prepared as described (Valera et al (1994)--supra) . Samples were quantified by measuring the O.D. at 260 nm, and by staining the membrane with methylene blue. The RNA were fractionated on a 1% agarose--6% formaldehyde gel and electroblotted to a non-charged nylon membrane (BDH). Prehybridisation at 68° C. was performed for 6 hours in hybridisation buffer (50% formamide, 5× SSC, 2% blocking buffer (Boehringer Mannheim), 0.1%6 laurolylsarcosine, 0.02% SDS). Hybridisation was overnight at 68° C. in fresh hybridisation buffer with a digoxigenin-UTP labelled riboprobe (100 ng/ml) corresponding to the entire hP2 × sequence. The membrane was washed at 68° C.; twice in 2× SSC+0.1% SDS, and twice in 0.1× SSC+0.1% SDS. Chemiluminescent detection of hybridisation was carried at room temperature as follows: the membrane was rinsed 5 min in buffer B1 (0.1 M maleic acid, 0.15 M NaCl, pH 7.5), saturated for 1 hour in 1% blocking buffer (B2), incubated 30 min with anti-digoxigenin-antibody alkaline phosphatase conjugated (750 u/ml, Boehringer Mannheim) diluted 1:15000 in B2, washed in B1+0.30% tween 20 (1× 5 min, 1× 15 min, 1× 1 h), equilibrated for 5 min in buffer B3 (0.1 M Tris HCl pH 9.5, 0.1 M NaCl, 50 mM MgCl2), incubated 45-60 sec in lumigen PPD (Boehringer Mannheim) diluted 1:100 in B3. The humid membrane was sealed in a plastic bag, incubated 15 min at 37° C., and exposed 15 to 20 min to Hyperfilm-ECL (Amersham). […]

[3] = listed as Extracellular calcium

SMILES	EC50 (hP2X) [µM]	full agonist activity (hP2X)	agonist profile (rank order) (hP2X)	relative potency (hP2X)	agonist potency order in whole tissue studies (P2X-purinoceptor)	induction of P2X mRNA in HL60 cells (hP2X mRNA)	other results
CSc1nc(N)c2ncn([C@@H]3O[C@H](COP(=O)(O)OP(=O)(O)OP(=O)(O)O)[C@@H](O)[C@H]3O)c2n1 [2MeSATP, 2-MethylthioATP tetra sodium salt]	0.6 ± 0.1	full agonists	2MeSATP≥ATP>α,β,-meATP	1.36	α,β,-meATP >>2MeSATP≥ATP	–	comparison of concentration-effect curves (hP2X; ATP, 2MeSATP and 2-chloro-ATP): superimposable
[Ca+2] [Ca^++, calcium]	–	–	–	–	–	–	Ca++ block, bladder [1]: none; Ca++ block, bladder [1, 3]: does not block current; Ca++ block, PC12 (PC12 P2X receptor): very strong; Ca++ block, PC12 (PC12 P2X receptor; [3]): inhibits the inward current; Ca++ block, clone 3 ([2]; Table A): intermediate; Ca++ block, clone 3 ([2]; Table A, listed as Extracellular calcium): intermediate in sensitivity
C[S+](C)[O-] [DMSO]	–	–	–	–	–	produced an increase in P2X mRNA	–
CCCC(=O)Nc1ncnc2c1ncn2[C@@H]1O[C@@H]2COP(=O)(O)O[C@H]2[C@H]1OC(=O)CCC [dibutryl cAMP, dibutyryl cAMP]	–	–	–	–	–	produced an increase in P2X mRNA	–
CCCCCCCCCCCCCC(=O)O[C@@H]1[C@@H](C)[C@@]2(O)[C@@H](C=C(CO)C[C@]3(O)C(=O)C(C)=C[C@@H]23)[C@@H]2C(C)(C)[C@]12OC(C)=O [phorbol diesters, phorbol mystate acetate]	–	–	–	–	–	produced an increase in P2X mRNA	–
Nc1ncnc2c1ncn2[C@@H]1O[C@H](COP(=O)(O)CP(=O)(O)OP(=O)(O)O)[C@@H](O)[C@H]1O [α,β-meATP, α,β-methylene ATP lithium salt]	3.6 ± 1.6	full agonists	2MeSATP≥ATP>α,β,-meATP	0.23	α,β,-meATP >>2MeSATP≥ATP	–	EC50 ([1]; parameter (EC50) not given, read-out: agonist profile, bladder): 3 µM; EC50 (PC12 P2X receptor; parameter (EC50) not given, read-out: agonist profile, PC12): > 100 µM; EC50 ([2]; Table A, parameter (EC50) not given, read-out: agonist profile, clone 3): > 100 µM; agonist action ([2]; clone 3 (FIG. 14)): little or no agonist action
